Each block holds one compound with its values, some of them ahead of it. Activity calls are given as the source filed them.
Experiments:
[1] = biological target: T1, Oxysterols receptor LXR-beta (Homo sapiens, UniProt P55055); assay type: functional, cell-based;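 also: Cell-based luminescence dose-response assay of agonist activity at LXR, run as a confirmatory counterscreen to a daf-12 agonist screen; HEK293 cells with Gal4-LXR fusion and GAL4-driven luciferase reporter; agonist potency from rising luciferase signal of a Gal4-LXR reporter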
T1 sequence (P55055 whole entry): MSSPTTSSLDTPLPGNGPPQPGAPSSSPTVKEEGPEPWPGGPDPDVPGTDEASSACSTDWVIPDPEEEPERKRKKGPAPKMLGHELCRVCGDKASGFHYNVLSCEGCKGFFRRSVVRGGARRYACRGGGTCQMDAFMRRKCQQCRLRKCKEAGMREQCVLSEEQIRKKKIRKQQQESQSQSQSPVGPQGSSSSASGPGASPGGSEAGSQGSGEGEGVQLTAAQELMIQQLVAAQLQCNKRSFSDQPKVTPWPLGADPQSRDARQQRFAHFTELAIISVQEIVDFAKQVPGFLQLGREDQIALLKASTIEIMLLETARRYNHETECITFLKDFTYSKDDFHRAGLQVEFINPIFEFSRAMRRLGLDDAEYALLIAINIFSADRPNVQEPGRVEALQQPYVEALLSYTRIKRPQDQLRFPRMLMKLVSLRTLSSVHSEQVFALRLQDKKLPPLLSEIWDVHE

[2] = Luminescence Cell-Based Dose Response HTS to Identify Activators of Luciferase Translation or Activity in H4 […] Cells. [Related pubchem assays: 1829 (Project Summary), 1814 (Primary HTS)]; assay type: functional
Paired box protein Pax-8 = Paired box protein Pax-8 (Homo sapiens, UniProt Q06710); experiment: PAX8 transcriptional activity inhibition in RMG-I – RMG-I cells, luciferase, cherry-pick, dose response (AID 687027); assay type: functional, cell-based;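 also: luciferase reporter driven by Pax8 target thyroperoxidase promoter measured by SteadyGlo luminescence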
[3] = OVCAR8 cell viability loss – plate reader, dry powder samples, PAX8 project, dose response (AID 743197); assay type: functional, cell-based; details: OVCAR-8
[4] = OVCAR-3 cell viability loss – plate reader, dry powder samples, PAX8 inhibitor project, dose response (AID 743044); assay type: functional, cell-based
Albumin = Albumin (Bos taurus, UniProt P02769); experiment: Counterscreen for inhibitors of T-cell receptor (TCR)-CD3 interaction: Fluorescence-based biochemical high throughput dose response assay to identify inhibitors of T-cell receptor (TCR)-CD3 interaction using a TAMRA-labeled BSA probe.; assay type: functional
[5] = viability loss in HEK293 cells – cell-based, plate reader, cherry-picked samples, cytotoxicity control, dose response (AID 743446); assay type: functional
[6] = blockers of bursicon-stimulated LGR2 cAMP reporter – cell-based, HEK293, CRE-luciferase reporter, cherry pick, set 2, dose response (AID 743343); assay type: functional;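 also: transfected cells were stimulated with diluted bursicon conditioned medium after compound addition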
[7] = A549 cell cytotoxicity, dose response, cytotoxicity control, plate reader, cherry-pick, antagonist series (AID 743412); assay type: functional, cell-based
[8] = blockade of melanocortin 4 receptor signaling – cell-based, plate reader, cherry pick, counter-screen for LGR2 antagonist project, dose response (AID 743444); assay type: functional;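 also: transfected HEK 293 cells stimulated with alpha-MSH peptide; potency of inhibitors of the alpha-MSH evoked signal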
[9] = biological target: T2, Rac GTPase-activating protein 1 (Homo sapiens, UniProt Q9H0H5); experiment: blockers of MgcRacGAP-driven Rac1 GTP hydrolysis – biochemical, ADP Hunter fluorescence, primary and confirmatory, confirmation (AID 624330); assay type: functional
T2 sequence (Q9H0H5 whole entry): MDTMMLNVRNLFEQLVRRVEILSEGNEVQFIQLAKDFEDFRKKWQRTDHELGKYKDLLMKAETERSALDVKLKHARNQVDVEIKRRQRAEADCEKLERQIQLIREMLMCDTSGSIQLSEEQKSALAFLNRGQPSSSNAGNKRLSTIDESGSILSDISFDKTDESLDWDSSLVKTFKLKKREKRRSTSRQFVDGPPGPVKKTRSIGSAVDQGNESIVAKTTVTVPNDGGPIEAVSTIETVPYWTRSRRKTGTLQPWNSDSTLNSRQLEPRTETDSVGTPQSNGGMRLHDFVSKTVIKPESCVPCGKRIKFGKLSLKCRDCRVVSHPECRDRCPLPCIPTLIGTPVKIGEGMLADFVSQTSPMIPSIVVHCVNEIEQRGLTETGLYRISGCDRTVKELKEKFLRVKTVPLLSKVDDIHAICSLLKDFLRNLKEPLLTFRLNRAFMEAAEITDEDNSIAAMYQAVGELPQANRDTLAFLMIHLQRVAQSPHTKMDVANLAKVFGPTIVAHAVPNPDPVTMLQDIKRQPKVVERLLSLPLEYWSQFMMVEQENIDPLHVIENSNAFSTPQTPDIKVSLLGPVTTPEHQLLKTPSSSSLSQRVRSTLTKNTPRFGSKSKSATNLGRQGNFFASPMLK

[10] = viability loss in HeLa cells – cytotoxicity control for MgcRacGAP inhibitor project, dose response (AID 624300); assay type: functional

Chain of Paired box protein Pax-8 (Q06710 whole entry): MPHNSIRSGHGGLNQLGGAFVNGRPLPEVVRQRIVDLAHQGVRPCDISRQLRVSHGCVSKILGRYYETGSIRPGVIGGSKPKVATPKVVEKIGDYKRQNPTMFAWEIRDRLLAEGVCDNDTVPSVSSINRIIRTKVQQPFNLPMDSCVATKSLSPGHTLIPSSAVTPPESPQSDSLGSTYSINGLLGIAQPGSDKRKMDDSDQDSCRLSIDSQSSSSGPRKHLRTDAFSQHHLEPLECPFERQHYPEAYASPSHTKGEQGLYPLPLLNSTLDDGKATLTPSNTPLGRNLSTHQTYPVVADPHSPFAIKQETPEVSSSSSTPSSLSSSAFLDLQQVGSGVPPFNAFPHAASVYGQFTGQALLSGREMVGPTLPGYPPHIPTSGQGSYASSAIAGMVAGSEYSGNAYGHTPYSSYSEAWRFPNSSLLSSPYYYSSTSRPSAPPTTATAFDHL
Chain of Albumin (P02769 whole entry): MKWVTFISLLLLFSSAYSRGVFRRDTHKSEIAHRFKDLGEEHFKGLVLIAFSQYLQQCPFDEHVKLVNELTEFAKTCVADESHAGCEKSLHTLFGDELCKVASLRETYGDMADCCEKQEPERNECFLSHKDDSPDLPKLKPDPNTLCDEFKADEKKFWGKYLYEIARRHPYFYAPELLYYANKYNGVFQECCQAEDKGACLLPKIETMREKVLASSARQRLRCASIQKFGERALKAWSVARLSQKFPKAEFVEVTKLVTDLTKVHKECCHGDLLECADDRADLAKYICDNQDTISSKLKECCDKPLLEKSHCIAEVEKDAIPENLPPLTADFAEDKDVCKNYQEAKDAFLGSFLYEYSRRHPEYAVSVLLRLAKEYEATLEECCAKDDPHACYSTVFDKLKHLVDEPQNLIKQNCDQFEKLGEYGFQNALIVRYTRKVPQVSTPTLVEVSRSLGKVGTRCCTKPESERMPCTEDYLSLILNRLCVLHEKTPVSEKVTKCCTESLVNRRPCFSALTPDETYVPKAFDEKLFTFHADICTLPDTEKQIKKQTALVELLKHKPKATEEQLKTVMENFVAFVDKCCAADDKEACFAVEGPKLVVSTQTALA

SMILES: Cc1ccsc1C(=O)OCc1csc(-c2ccccc2)n1
EC50 (cells): > 67.5 µM (inactive)
EC50 [1]: > 67.5 µM (inactive)

SMILES: Cn1c(=O)c(/C=C/c2ccccc2)nc2ccccc21
EC50 (cells): > 67.6 µM (inactive)
EC50 [1]: > 67.6 µM (inactive)
EC50 [2]: 0.174 µM (active)

SMILES: Cc1cccc(-c2ccc([C@H]3[C@@H](CO)N4CCCCN(S(=O)(=O)c5cccc(C)c5)C[C@@H]34)cc2)c1
AC50 (Paired box protein Pax-8): 8.23 µM (active)
AC50 [3]: > 70 µM (inactive)

SMILES: C[C@@H]1CCCCO[C@@H](CN(C)Cc2ccc(C(F)(F)F)cc2)[C@H](C)CN([C@@H](C)CO)C(=O)c2cc(NC(=O)Nc3ccc(F)cc3)ccc2O1
AC50 (Paired box protein Pax-8): 3.37 µM (active)
AC50 [4]: 45.7 µM (active)

SMILES: Cc1ccc(S(=O)(=O)Nc2ccc3c(c2)C(=O)N([C@H](C)CO)C[C@@H](C)[C@H](CN(C)Cc2ccc(Cl)c(Cl)c2)OCCCC[C@H](C)O3)cc1
AC50 (Paired box protein Pax-8): 6.2 µM (active)
AC50 [3]: 37.8 µM (active)
AC50 [4]: 25.4 µM (active)

IC50 (Albumin): > 94 µM (inactive)
SMILES: Cc1onc(-c2ccccc2)c1C(=O)NN=Cc1cc(Cl)cc(Cl)c1O

SMILES: Cc1cccc(-c2ccc([C@H]3[C@@H](CO)N4CCCCN(C(=O)c5ccc6c(c5)OCO6)C[C@@H]34)cc2)c1
AC50 [5]: 15.6 µM (active)
AC50 [6]: 14.2 µM (active)
AC50 [7]: 26.4 µM (active)
AC50 [8]: 15.4 µM (active)

IC50 [9]: 22.2 µM (active)
SMILES: Oc1ccc(/C=N/Nc2nn3cnnc3c3ccccc23)cc1
CC50 [10]: 100 µM (active)

Source: ChEMBL document CHEMBL1201862, “PubChem BioAssay data set” (2004)
